# Test results: US20120122913A1, “COMBINATION OF CURCUMINOIDS AND MTOR INHIBITORS FOR THE TREATMENT OF TAUOPATHIES” (Institut National De La Recherche Scientifque, priority 2009, published 2012)
# Experiments:
# [1] = system: differentiated SH-SY5Y cells; test: MTT cell viability assay in differentiated SH-SY5Y cells exposed to β-amyloid(1-42); conditions: 48 h
# Protocol: For the cytotoxicity assay, 48 well-plates were seeded with 180,000 cells and 500 μl of culture medium was added. Five Petri dishes (or 6-well plates) were prepared for each treatment. […] On day 7, the culture medium was removed and changed with a medium free of retinoic acid and FBS, but containing 2 nM of BDNF (Sigma Cat. No. B3795), from a 2 μM master solution in filtered sterile water). Chemical treatments were initiated and kept for 48 h. […] The Human Beta Amyloid (Aβ(1-42), Chemicon Cat. No. AG972) solution was prepared according to the manufacturer's instructions. […] The solution was subsequently diluted in serum-deprived culture medium containing BDNF (2 nM final concentration) to obtain either a 5 nM or 5 μM Aβ(1-42) final concentration.
# In parallel, on day 9, plates were used for the MTT cell viability assay. A volume of 62.5 μl of a 3-(4,5-Dimethylthiazol-2-yl)-2,5-diphenyltetrazolium bromide (MTT) solution (5 mg/ml in a 1:1 PBS/culture medium) was added, then plates were incubated for 4 h. A volume of 312.5 μl of isopropanol—0.1N HCl was added, then for each well the content was mixed using a pipette (wide bore tip) to solubilize the product. The optical density at 560 nm, which is proportional to the number of living cells, was measured (reference at 690 nm).
# Tau protein = test: Total Tau protein level by Western blot in differentiated SH-SY5Y cells exposed to β-amyloid(1-42); format: cell-based, human; conditions: 48 h
# Protocol: Chemical treatments were initiated and kept for 48 h.
# On day 8, cells were observed under an inverted microscope to ensure that they are fully adherent and free of microbial contamination. On day 9, Petri dishes were used for Western Blot analyses. […] Cells were then removed with a cell scraper, transferred to a 0.6 ml microtube and kept on ice. Samples were sonicated for 30 seconds and mixed with a vortex for 5 seconds and the procedure was repeated once. Samples obtained were stored at −80 ° C. in aliquots of 20 μl. For SDS-PAGE analysis, samples (20 μl) were mixed with 7.34 μl of 4× SDS gel loading buffer (200 mM Tris-HCl, pH 6.8, 8% SDS, 20% Glycerol, 0.4% bromophenol blue and 400 mM β-mercaptoethanol) and 2 μl of cell lysing buffer, boiled for 10 min, cooled on ice, spun on a microcentrifuge and transferred to wells of an electrophoresis apparatus containing a 4% acrylamide stacking gel and a 8% acrylamide resolving gel. Electrophoresis protein separation was performed overnight using a constant current (40 V). Proteins were transferred to nitrocellulose by electro-blotting in a 20% methanol-transfer buffer with a constant 900 mA current for 90 min. Ponceau Red staining was performed to evaluate the quality of loading and transfer. […] The membrane was then washed 4 times for 5 min each time with TBS-0.1% Tween™, and soaked with the chemiluminescence substrate (Enhanced Luminol™ from PerkinElmer). X-Ray films were exposed to the membranes long enough to optimize each band detection. Band Intensity was quantified using a Fluor-S Multimager™ (Bio-Rad scanner) and the Quantity One™ software (Bio-Rad) and data adjusted with local background.
smiles,measurement,setting,value
CO[C@H]1C[C@@H]2CC[C@@H](C)[C@@](O)(O2)C(=O)C(=O)N2CCCC[C@H]2C(=O)O[C@H]([C@H](C)C[C@@H]2CC[C@@H](OC(=O)C(C)(CO)CO)[C@H](OC)C2)CC(=O)[C@H](C)/C=C(\C)[C@@H](O)[C@@H](OC)C(=O)[C@H](C)C[C@H](C)/C=C/C=C/C=C/1C [Temsirolimus],"cytotoxicity (cell viability, MTT)","[1]; 2 nM Temsirolimus, 5 nM β-amyloid(1-42), FIG. 6",none of these three treatments were cytotoxic
same,reduction in the total amount of Tau protein as compared to controls,"Tau protein; 2 nM Temsirolimus, 5 nM human β-amyloid(1-42), FIG. 5",5.3%
CO[C@H]1C[C@@H]2CC[C@@H](C)[C@@](O)(O2)C(=O)C(=O)N2CCCC[C@H]2C(=O)O[C@H]([C@H](C)C[C@@H]2CC[C@@H](OCCO)[C@H](OC)C2)CC(=O)[C@H](C)/C=C(\C)[C@@H](O)[C@@H](OC)C(=O)[C@H](C)C[C@H](C)/C=C/C=C/C=C/1C [Everolimus],"cytotoxicity (cell viability, MTT)","[1]; 1 nM Everolimus, 5 μM β-amyloid(1-42), FIG. 4",none of these three treatments were cytotoxic
same,"cytotoxicity (cell viability, MTT)","[1]; 2 nM Everolimus, 5 nM β-amyloid(1-42), FIG. 2",none of these three treatments were cytotoxic
same,reduction in the total amount of Tau protein as compared to controls,"Tau protein; 1 nM Everolimus, 5 μM human β-amyloid(1-42), FIG. 3",17.2%
same,reduction in the total amount of Tau protein as compared to controls,"Tau protein; 2 nM Everolimus, 5 nM human β-amyloid(1-42), FIG. 1",18.7%
"COc1cc(/C=C/C(=O)CC(=O)/C=C/c2ccc(O)c(OC)c2)ccc1O [curcumin, (E,E)-1,7-bis(4-Hydroxy-3-methoxyphenyl)-1,6-heptadiene-3,5-dione]","cytotoxicity (cell viability, MTT)","[1]; 10 μM curcumin, 5 μM β-amyloid(1-42), FIG. 4",none of these three treatments were cytotoxic
same,"cytotoxicity (cell viability, MTT)","[1]; 15 μM curcumin, 5 nM β-amyloid(1-42), FIG. 6",none of these three treatments were cytotoxic
same,"cytotoxicity (cell viability, MTT)","[1]; 20 μM curcumin, 5 nM β-amyloid(1-42), FIG. 2",none of these three treatments were cytotoxic
same,reduction in the total amount of Tau protein as compared to controls,"Tau protein; 10 μM curcumin, 5 μM human β-amyloid(1-42), FIG. 3",0.5%
same,reduction in the total amount of Tau protein as compared to controls,"Tau protein; 15 μM curcumin, 5 nM human β-amyloid(1-42), FIG. 5",6.7%
same,reduction in the total amount of Tau protein as compared to controls,"Tau protein; 20 μM curcumin, 5 nM human β-amyloid(1-42), FIG. 1",2.1%
